Calls of active or inactive are those of the source.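 The calls were made as follows: active = fitted concentration giving half of the maximal binding block below 66 µM; inactive = the rest.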
molecular target: anti-desmoglein 3 scFv antibody binding to human desmoglein 3 (DSG3); test: inhibitors of anti-DSG3 scFv binding to DSG3, dose response, biochemical, DSG3-coupled beads, scFv-GFP, flow cytometry, Cherry Pick 1 (AID 602251); details: not given;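 as to binding response, lower = inhibition: 100% = DMSO vehicle binding and 0% = soluble DSG3 blocking control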

SMILES | EC50 [µM]
CCOC(=O)Cc1csc(-n2sc3ccccc3c2=O)n1 | 15
O=C1c2ccccc2C(=O)N1Cc1nn2c(-c3ccc(Cl)cc3)nnc2s1 | 36
COc1ccc(NC(=O)CSc2nc3c([nH]c4ccccc43)c(=O)n2C)c(OC)c1 | 22.4
O=C(Nc1ccc(F)cc1)Nc1ccc([N+](=O)[O-])cn1 | 21.5
Nc1ccc2nc(-c3cccc(-c4nc5ccc(N)cc5[nH]4)c3)[nH]c2c1 | 65.2
C=CCn1c(SCC(=O)N2CCN(c3ccccc3)CC2)nc2c([nH]c3ccccc32)c1=O | 50.9
COc1ccc(N=C2S/C(=C\c3ccc(OCC(=O)O)cc3)C(=O)N2CCc2c[nH]c3ccccc23)cc1 | 15.8
COCCCNC(=O)c1c(N)n(-c2ccc(S(N)(=O)=O)cc2)c2nc3ccccc3nc12 | 25.6
CCOC(=O)Cn1c(=NC(=O)c2cccs2)sc2cc(C(=O)OC)ccc21 | 26
O=C(NC1CCCCC1)C(c1ccc(O)cc1)N(CC1CCCO1)C(=O)C1COc2ccccc2O1 (stereo not given) | 37.7
NS(=O)(=O)c1ccc(NC(=O)c2cc(-c3cccs3)nc3ccccc23)cc1 | 17.3
O=C(O)C1Nc2c(O)cc(Cl)c([N+](=O)[O-])c2C2C=CCC12 (stereo not given) | 27.7
Cc1ccc(NC(=O)CN2C(=O)N/C(=C/c3cccn3-c3ccc(C(=O)O)cc3)C2=O)cc1 | 48.4
CCCCOC(=O)Nc1sc2nc(C)cc(C)c2c1-n1cccc1 | 41.9
COc1cc(C(=O)Nc2cccc(-c3nc4cc(C)ccc4o3)c2C)cc(OC)c1OC | 24.6
CCc1nnc(NC(=O)CSc2nncc(=O)n2N)s1 | 55
O=c1c2c([N+](=O)[O-])cc([N+](=O)[O-])cc2sn1Cc1ccccc1 | 9.8
COc1ccccc1NC(=O)Cn1nnc(-c2ccccc2NC(=O)c2cc3ccccc3oc2=O)n1 | 25.8
Nc1ccc2nc3c(=O)[nH]c(=S)[nH]c3nc2c1 | 39.1
COc1ccccc1NC(=O)c1cc(C(=O)Nc2ccccc2OC)cc([N+](=O)[O-])c1 | 25.3
NC(=O)c1ccsc1NC(=O)COC(=O)c1cc(=O)[nH]c2ccccc12 | 30.2

same assay, conditions: at 66.1 µM (top of the series)

SMILES | binding response, lower = inhibition
Cc1ccc(-n2ncc3c(=O)[nH]c(SCC(=O)N4CCN(c5ccccc5)CC4)nc32)cc1 | inactive
CSc1nc(SCC(=O)O)c2sc3nc(-c4ccccc4)c4c(c3c2n1)CCC4 | inactive
C=CCSc1nc(N)c(C(=O)Nc2ccccc2)cc1C#N | inactive
COc1ccc(NC(=O)c2cc(-c3ccco3)nc3ccccc23)cc1 | inactive
CCOc1ccc2nc(NC(=O)c3ccc(S(=O)(=O)N4CCOCC4)cc3)sc2c1 | inactive
CC(=O)c1ccc(NC(=O)CSc2ccsc2[N+](=O)[O-])cc1 | inactive
Cc1ccc(NC(=O)c2sc(N)nc2-c2ccc([N+](=O)[O-])cc2)cc1C | inactive
CCc1ccc(OCC(=O)Nc2ccc(N3CCN(C(=O)c4ccccc4)CC3)cc2)cc1 | inactive
O=C(COc1cc2oc(=O)c3c(c2cc1Cl)CCC3)Nc1ccccn1 | inactive
O=C1OC(COc2ccc(Br)cc2)CN1c1ccccc1 (stereo not given) | inactive
COc1ccc(NC(=O)c2ccc3c(c2)C(=O)N(Cc2cccnc2)C3=O)cc1 | inactive
COc1ccc(O)c(/C=N/n2c(-c3ccco3)csc2=Nc2cccnc2)c1 | inactive
CCCCN1C=C(C(=O)OC)C(c2ccccc2C(F)(F)F)C(C(=O)OC)=C1 | inactive
CCC(=O)N1CCc2cc(S(=O)(=O)N(C)c3ccc(Br)cc3)ccc21 | inactive
OCc1cn(-c2ccccc2)nc1-c1ccc(-c2nn(-c3ccccc3)cc2CO)cc1 | inactive
CCc1ccc(-c2cc(C(=O)Nc3ccc(S(=O)(=O)NC(C)=O)cc3)c3ccccc3n2)cc1 | inactive
CSc1ccccc1OCc1cc(C(=O)NCCC2=CCCCC2)no1 | inactive
COc1ccc(CNC(=O)c2ccc(-c3ccccc3)cc2)cc1OC | inactive
COc1ccc(NC(=O)c2ccc3c(c2)C(=O)N(Cc2ccncc2)C3=O)cc1S(N)(=O)=O | inactive

From PubChem BioAssay AID602251 (NMMLSC, 2012)
